US20250144223A1, “PROTEIN DEGRADATION COMPOUND BASED ON NAMPT TARGET PROTEIN AND APPLICATION THEREOF” (GLUETACS THERAPEUTICS (SHANGHAI) CO., LTD., priority 2021, published 2025)
pIC50: −log10 of the molar value.

test system: Jurkat; assay: CellTiter-Glo Luminescent Cell Viability Assay, half inhibitory concentration (IC50) on tumor cell proliferation; format: cell-based; settings: Homo sapiens, Jurkat cells, 72 h treatment
Method: The tumor cells used herein were cultured in a cell culture medium at 37° C. in an incubator with 5% CO2, where the cell culture medium was supplemented with 10% FBS, as well as penicillin at a final concentration of 100 U/mL and streptomycin at a final concentration of 100 μg/mL. Prior to experimentation, all cells used were identified as correct cells by STR cells, and were negative for mycoplasma through routine testing.
IC50 values of the compounds of the present disclosure (including the compounds in Table 1 and compounds of examples) were measured using the CellTiter-Glo® Luminescent Cell Viability Assay kit from Promega Corporation. Assay details are as follows: Cells were seeded in 100 μL RPMI1640 medium containing serum at a density of 20,000 cells/well. After 24 h, the inoculated cells were treated with the compounds of the present disclosure which were serially diluted. After the cells were treated with the compounds of the present disclosure for 72 h, the CellTiter-Glo® reagent was added to the culture medium for cell viability assessment according to the instructions provided with the kit. DMSO served as the negative control, and FK866 inhibitor was used as the positive control, both treated with the same protocol as the compounds of the present disclosure. The growth inhibition of the compounds of the present disclosure on cells was plotted by Prism Graphpad software, and the IC50 values of the compounds of the present disclosure were calculated therefrom.

Compound | pIC50
O=C(/C=C/c1cccnc1)NCCCCC1CCN(C(=O)c2ccc(N3CCNCC3)cc2)CC1 [SIAIS630006, (E)-N-(4-(1-(4-(piperazin-1-yl)benzoyl)piperidin-4-yl)butyl)-3-(pyridin-3-yl)acrylamide] | 8.52
Cc1ncsc1-c1ccc(CNC(=O)[C@@H]2C[C@@H](O)CN2C(=O)[C@@H](NC(=O)CCCCC(=O)N2CCN(c3ccc(C(=O)N4CCC(CCCCNC(=O)/C=C/c5cccnc5)CC4)cc3)CC2)C(C)(C)C)cc1 [SIAIS630007, (2S,4R)-1-((S)-3,3-dimethyl-2-(6-oxo-6-(4-(4-(4-(4-((E)-3-(pyridin-3-yl)acrylamido)butyl)piperidine-1-carbonyl)phenyl)piperazin-1-yl)hexanamido)butanoyl)-4-hydroxy-N-(4-(4-methylthiazol-5-yl)benzyl)pyrrolidine-2-carboxamide] | 6.96
Cc1ncsc1-c1ccc(CNC(=O)[C@@H]2C[C@@H](O)CN2C(=O)[C@@H](NC(=O)CCCCCCCCCCCCCCC(=O)N2CCN(c3ccc(C(=O)N4CCC(CCCCNC(=O)/C=C/c5cccnc5)CC4)cc3)CC2)C(C)(C)C)cc1 [SIAIS630008, (2S,4R)-1-((S)-3,3-dimethyl-2-(16-oxo-16-(4-(4-(4-(4-((E)-3-(pyridin-3-yl)acrylamido)butyl)piperidine-1-carbonyl)phenyl)piperazin-1-yl)hexadecanamido)butanoyl)-4-hydroxy-N-(4-(4-methylthiazol-5-yl)benzyl)pyrrolidine-2-carboxamide] | 7.02
O=C(/C=C/c1cccnc1)NCCCCC1CCN(C(=O)c2ccc(N3CCN(C(=O)CCNc4cccc5c4C(=O)N(C4CCC(=O)NC4=O)C5=O)CC3)cc2)CC1 (stereo not drawn) [SIAIS630009, (E)-N-(4-(1-(4-(4-(3-((2-(2,6-dioxopiperidin-3-yl)-1,3-dioxoisoindolin-4-yl)amino)propanoyl)piperazin-1-yl)benzoyl)piperidin-4-yl)butyl)-3-(pyridin-3-yl)acrylamide] | 8.64
O=C(/C=C/c1cccnc1)NCCCCC1CCN(C(=O)c2ccc(N3CCN(C(=O)CCCNc4cccc5c4C(=O)N(C4CCC(=O)NC4=O)C5=O)CC3)cc2)CC1 (stereo not drawn) [SIAIS630010, (E)-N-(4-(1-(4-(4-(4-((2-(2,6-dioxopiperidin-3-yl)-1,3-dioxoisoindolin-4-yl)amino)butanoyl)piperazin-1-yl)benzoyl)piperidin-4-yl)butyl)-3-(pyridin-3-yl)acrylamide] | 9.46
O=C(/C=C/c1cccnc1)NCCCCC1CCN(C(=O)c2ccc(N3CCN(C(=O)CCCCNc4cccc5c4C(=O)N(C4CCC(=O)NC4=O)C5=O)CC3)cc2)CC1 (stereo not drawn) [SIAIS630011, (E)-N-(4-(1-(4-(4-(5-((2-(2,6-dioxopiperidin-3-yl)-1,3-dioxoisoindolin-4-yl)amino)pentanoyl)piperazin-1-yl)benzoyl)piperidin-4-yl)butyl)-3-(pyridin-3-yl)acrylamide] | 8.55
O=C(/C=C/c1cccnc1)NCCCCC1CCN(C(=O)c2ccc(N3CCN(C(=O)CCCCCCNc4cccc5c4C(=O)N(C4CCC(=O)NC4=O)C5=O)CC3)cc2)CC1 (stereo not drawn) [SIAIS630012, (E)-N-(4-(1-(4-(4-(7-((2-(2,6-dioxopiperidin-3-yl)-1,3-dioxoisoindolin-4-yl)amino)heptanoyl)piperazin-1-yl)benzoyl)piperidin-4-yl)butyl)-3-(pyridin-3-yl)acrylamide] | 8.55
O=C(/C=C/c1cccnc1)NCCCCC1CCN(C(=O)c2ccc(N3CCN(C(=O)CSc4cccc5c4CN(C4CCC(=O)NC4=O)C5=O)CC3)cc2)CC1 (stereo not drawn) [SIAIS630013, (E)-N-(4-(1-(4-(4-(2-((2-(2,6-dioxopiperidin-3-yl)-1-oxoisoindolin-4-yl)thio)acetyl)piperazin-1-yl)benzoyl)piperidin-4-yl)butyl)-3-(pyridin-3-yl)acrylamide] | 6.72
O=C(/C=C/c1cccnc1)NCCCCC1CCN(C(=O)c2ccc(N3CCN(C(=O)CCCCSc4cccc5c4CN(C4CCC(=O)NC4=O)C5=O)CC3)cc2)CC1 (stereo not drawn) [SIAIS630014, (E)-N-(4-(1-(4-(4-(5-((2-(2,6-dioxopiperidin-3-yl)-1-oxoisoindolin-4-yl)thio)pentanoyl)piperazin-1-yl)benzoyl)piperidin-4-yl)butyl)-3-(pyridin-3-yl)acrylamide] | 8.70
O=C(/C=C/c1cccnc1)NCCCCN1CCN(C(=O)c2ccc(N3CCNCC3)cc2)CC1 [SIAIS630020, (E)-N-(4-(4-(4-(piperazin-1-yl)benzoyl)piperazin-1-yl)butyl)-3-(pyridin-3-yl)acrylamide] | 6.07
O=C(/C=C/c1cccnc1)NCCCCC1CCN(C(=O)c2ccc(N3CCN(C(=O)CCCCCSc4cccc5c4CN(C4CCC(=O)NC4=O)C5=O)CC3)cc2)CC1 (stereo not drawn) [SIAIS630037, (E)-N-(4-(1-(4-(4-(6-((2-(2,6-dioxopiperidin-3-yl)-1-oxoisoindolin-4-yl)thio)hexanoyl)piperazin-1-yl)benzoyl)piperidin-4-yl)butyl)-3-(pyridin-3-yl)acrylamide] | 8.94
O=C(/C=C/c1cccnc1)NCCCCC1CCN(C(=O)c2ccc(N3CCN(C(=O)COCCSc4cccc5c4CN(C4CCC(=O)NC4=O)C5=O)CC3)cc2)CC1 (stereo not drawn) [SIAIS630038, (E)-N-(4-(1-(4-(4-(2-(2-((2-(2,6-dioxopiperidin-3-yl)-1-oxoisoindolin-4-yl)thio)ethoxy)acetyl)piperazin-1-yl)benzoyl)piperidin-4-yl)butyl)-3-(pyridin-3-yl)acrylamide] | 7.61
O=C(/C=C/c1cccnc1)NCCCCC1CCN(C(=O)c2ccc(N3CCN(C(=O)COCCOCCSc4cccc5c4CN(C4CCC(=O)NC4=O)C5=O)CC3)cc2)CC1 (stereo not drawn) [SIAIS630039, (E)-N-(4-(1-(4-(4-(2-(2-(2-((2-(2,6-dioxopiperidin-3-yl)-1-oxoisoindolin-4-yl)thio)ethoxy)ethoxy)acetyl)piperazin-1-yl)benzoyl)piperidin-4-yl)butyl)-3-(pyridin-3-yl)acrylamide] | 8.10
O=C(/C=C/c1cccnc1)NCCCCC1CCN(C(=O)c2ccc(N3CCN(CCCCC#Cc4cccc5c4CN(C4CCC(=O)NC4=O)C5=O)CC3)cc2)CC1 (stereo not drawn) [SIAIS630119, (E)-N-(4-(1-(4-(4-(6-(2-(2,6-dioxopiperidin-3-yl)-1-oxoisoindolin-4-yl)hex-5-yn-1-yl)piperazin-1-yl)benzoyl)piperidin-4-yl)butyl)-3-(pyridin-3-yl)acrylamide] | 8.52
O=C(/C=C/c1cccnc1)NCCCCC1CCN(C(=O)c2ccc(N3CCN(CCCCCCCC#Cc4cccc5c4CN(C4CCC(=O)NC4=O)C5=O)CC3)cc2)CC1 (stereo not drawn) [SIAIS630122, (E)-N-(4-(1-(4-(4-(9-(2-(2,6-dioxopiperidin-3-yl)-1-oxoisoindolin-4-yl)non-8-yn-1-yl)piperazin-1-yl)benzoyl)piperidin-4-yl)butyl)-3-(pyridin-3-yl)acrylamide] | 7.55
O=C(/C=C/c1cccnc1)NCCCCC1CCN(C(=O)c2ccc(N3CCN(CCCCSc4cccc5c4CN(C4CCC(=O)NC4=O)C5=O)CC3)cc2)CC1 (stereo not drawn) [SIAIS630123, (E)-N-(4-(1-(4-(4-(4-((2-(2,6-dioxopiperidin-3-yl)-1-oxoisoindolin-4-yl)thio)butyl)piperazin-1-yl)benzoyl)piperidin-4-yl)butyl)-3-(pyridin-3-yl)acrylamide] | 8.60
O=C(/C=C/c1cccnc1)NCCCCC1CCN(C(=O)c2ccc(N3CCN(CCCC#Cc4cccc5c4CN(C4CCC(=O)NC4=O)C5=O)CC3)cc2)CC1 (stereo not drawn) [SIAIS630129, (E)-N-(4-(1-(4-(4-(5-(2-(2,6-dioxopiperidin-3-yl)-1-oxoisoindolin-4-yl)pent-4-yn-1-yl)piperazin-1-yl)benzoyl)piperidin-4-yl)butyl)-3-(pyridin-3-yl)acrylamide] | 8.53
O=C(/C=C/c1cccnc1)NCCCCC1CCN(C(=O)c2ccc(N3CCN(CCSc4cccc5c4CN(C4CCC(=O)NC4=O)C5=O)CC3)cc2)CC1 (stereo not drawn) [SIAIS630130, (E)-N-(4-(1-(4-(4-(2-((2-(2,6-dioxopiperidin-3-yl)-1-oxoisoindolin-4-yl)thio)ethyl)piperazin-1-yl)benzoyl)piperidin-4-yl)butyl)-3-(pyridin-3-yl)acrylamide] | 7.62
O=C(/C=C/c1cccnc1)NCCCCC1CCN(C(=O)c2ccc(N3CCN(CCCSc4cccc5c4CN(C4CCC(=O)NC4=O)C5=O)CC3)cc2)CC1 (stereo not drawn) [SIAIS630131, (E)-N-(4-(1-(4-(4-(3-((2-(2,6-dioxopiperidin-3-yl)-1-oxoisoindolin-4-yl)thio)propyl)piperazin-1-yl)benzoyl)piperidin-4-yl)butyl)-3-(pyridin-3-yl)acrylamide] | 8.36
O=C(/C=C/c1cccnc1)NCCCCC1CCN(C(=O)c2ccc(N3CCN(CCCCCSc4cccc5c4CN(C4CCC(=O)NC4=O)C5=O)CC3)cc2)CC1 (stereo not drawn) [SIAIS630132, (E)-N-(4-(1-(4-(4-(5-((2-(2,6-dioxopiperidin-3-yl)-1-oxoisoindolin-4-yl)thio)pentyl)piperazin-1-yl)benzoyl)piperidin-4-yl)butyl)-3-(pyridin-3-yl)acrylamide] | 8.20
O=C(/C=C/c1cccnc1)NCCCCC1CCN(C(=O)c2ccc(N3CCN(CCCCCCSc4cccc5c4CN(C4CCC(=O)NC4=O)C5=O)CC3)cc2)CC1 (stereo not drawn) [SIAIS630133, (E)-N-(4-(1-(4-(4-(6-((2-(2,6-dioxopiperidin-3-yl)-1-oxoisoindolin-4-yl)thio)hexyl)piperazin-1-yl)benzoyl)piperidin-4-yl)butyl)-3-(pyridin-3-yl)acrylamide] | 8.20
